Like-named read-outs stand apart in the source and are kept apart here.
Target: T1, PARP7 (Homo sapiens, UniProt Q7Z3E1)
T1 construct: purchased BPS Bioscience
T1 sequence (Q7Z3E1 1-657): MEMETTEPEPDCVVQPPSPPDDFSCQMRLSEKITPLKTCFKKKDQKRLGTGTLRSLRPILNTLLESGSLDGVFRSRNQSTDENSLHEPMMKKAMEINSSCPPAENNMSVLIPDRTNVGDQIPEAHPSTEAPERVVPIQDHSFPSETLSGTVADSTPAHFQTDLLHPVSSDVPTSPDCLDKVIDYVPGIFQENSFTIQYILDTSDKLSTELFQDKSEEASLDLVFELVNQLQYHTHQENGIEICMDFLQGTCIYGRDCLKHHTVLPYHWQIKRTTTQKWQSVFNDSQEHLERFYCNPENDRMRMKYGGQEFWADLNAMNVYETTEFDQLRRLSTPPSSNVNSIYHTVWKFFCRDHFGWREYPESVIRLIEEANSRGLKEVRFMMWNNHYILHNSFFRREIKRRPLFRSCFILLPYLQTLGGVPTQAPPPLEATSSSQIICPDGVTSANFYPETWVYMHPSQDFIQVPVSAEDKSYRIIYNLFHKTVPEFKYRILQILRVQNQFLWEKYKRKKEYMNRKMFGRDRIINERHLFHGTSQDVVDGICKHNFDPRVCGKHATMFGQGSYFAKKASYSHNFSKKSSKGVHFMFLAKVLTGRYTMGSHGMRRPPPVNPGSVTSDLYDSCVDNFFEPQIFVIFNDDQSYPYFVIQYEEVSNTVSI
Test: Inhibitory activity of compounds on PARP7 enzyme (PARP7 Chemiluminescent Assay Kit)
Format: biochemical
Experimental: Experimental materials: PARP7 Chemiluminescent Assay Kit, BPS Bioscience; DMSO, China National Pharmaceutical Group, Nivo, PerkinElmer.
(1) Preparation of Solutions and Buffers:
Preparation of 10×PBS: 720 mg of KH2PO4, 45 g of NaCl and 5.311 g of Na2HPO4·12H2O were weighed respectively and dissolved in 500 mL of deionized water, a system pH value was adjusted to 7.4, sterilization was performed at 121° C. for 30 min, and the system after cooling was placed at 4° C. for later use.
Preparation of 1×PBS: 10×PBS was diluted 10 times with deionized water, that is, 9 parts of deionized water was added to 1 part of 10×PBS for dilution.
Preparation of wash buffer: 1×PBS contained 0.05% Tween-20.
Preparation of 1×PARP buffer (prepared freshly before use): 10×PARP buffer was diluted 10 times with deionized water and placed on ice for later use.
(2) Preparation of Compound Working Solution Concentration:
According to test requirements, a compound to be tested is diluted with 100% DMSO to a desired concentration, and then diluted 10 times with 1×PARP buffer to prepare a 10× compound working solution.
a. 5× histone mixture was thawed on ice one day prior to the experiment;
b. preparation of 1× histone mixture: 1× histone mixture was prepared through the 5× histone mixture by using 1×PBS; and 25 μL of 1× histone mixture was taken from each well and transferred into a test well plate and incubated overnight at 4° C.;
c. 100 μL of Blocking buffer was taken from each well and added to the test well plate and incubated for 90 min at 25° C.;
d. after the incubation was completed, the liquid in the test well plate was spin-dried, and the test well plate was washed repeatedly for 3 times;
e. 2.5 μL of the compound working solution was taken from each well and added to the test well plate according to an experimental layout diagram; and 1×PARP buffer with a corresponding volume of 10% DMSO was added to positive control wells (Positive Control), and 1×PARP buffer of a corresponding volume was added to blank control wells (Blank);
f. after the enzyme was completely dissolved, an enzyme stock solution was diluted with 1×PARP buffer to 6 ng/μL;
g. 10 μL of enzyme solution was taken from each well and added to the test well plate, the blank control wells were added with the corresponding volume of 1×PARP buffer, and in which case, the enzyme amount was 60 ng per well. Note: this step needs to be performed on ice;
h. 12.5 μL of master mixture was added to each well of the test well plate (12.5 μL master mixture included 1.25 μL of 10×PARP buffer, 1.25 μL of Opti-PARP 10× Assay mixture and 10 μL of water); the test well plate was sealed and incubated at 25° C. for 60 min;
i. after the incubation was completed, the liquid in the test well plate was spin-dried, and the test well plate was washed repeatedly for 3 times;
j. Streptavidin-HRP in a kit was diluted 50 times with a Blocking buffer, 25 μL was taken from each well and added to the test well plate, and incubated at 25° C. for 30 min;
k. after the incubation was completed, the liquid in the test well plate was spin-dried, and the test well plate was washed repeatedly for 3 times;
l. ELISA ECL Substrate A and ELISA ECL Substrate B in the kit was mixed to obtain a mixed solution according to a ratio of 1:1, 50 μL of the mixed solution was added to each well of the test well plate, Nivo was used to perform Luminescence detection immediately, and a luminous value (RLU) was read; and
m. calculation of an enzyme rate: Enzyme Activity=(RLU(Sample)−RLU(Blank))/(RLU(Pos.Ctrl)−RLU(Blank))×100%; and enzyme inhibition rate=1−% Enzyme Activity, and specific results were shown in Table 1 below.

[1] = chemiluminescence, symbols defined as IC50 classes, read-out: 100 nM Inhibition Rate
[2] = summary of Table 1, read-out: enzyme inhibition IC50 values

In the case of `C[C@@H](CN1CC(C(=O)N2CCN(c3ncc(Cl)cn3)CC2)C1)Nc1cn[nH]c(=O)c1C(F)(F)F` [I-A-5, (S)-5-((1-(3-(4-(5-chloropyrimidin-2-yl)piperazine-1-carbonyl)azetidin-1-yl)propan-2-yl)amino)-4-(trifluoromethyl)pyridazin-3(2H)-one], the IC50 [1] is reported as less than 100 nM.

`Cc1cnc(N2CCN(C(=O)C3CN(C[C@H](C)Nc4cn[nH]c(=O)c4C(F)(F)F)C3)CC2)nc1` [I-A-6, (S)-5-((1-(3-(4-(5-methylpyrimidin-2-yl)piperazine-1-carbonyl)azetidin-1-yl)propan-2-yl)amino)-4-(trifluoromethyl)pyridazin-3(2H)-one] showed an IC50 [1] of less than 100 nM.

With `C[C@@H](CN1CC(C(=O)N2CCN(c3cccc4c3oc3ccccc34)CC2)C1)Nc1cn[nH]c(=O)c1C(F)(F)F` [I-A-12] the IC50 [1] was 100 to 500 nM.

Work on `O=C(NCCCCNc1cn[nH]c(=O)c1C(F)(F)F)N1CCN(c2ncc(C(F)(F)F)cn2)CC1` [I-E-1, N-(4-((6-oxo-5-(trifluoromethyl)-1,6-dihydropyridazin-4-yl)amino)butyl)-4-(5-(trifluoromethyl)pyrimidin-2-yl)piperazine-1-carboxamide] yielded an IC50 [1] of less than 100 nM and an IC50 [2] of less than 100 nM.

With `C[C@@H](CN1CC(C(=O)NC2CN(c3ncc(C(F)(F)F)cn3)C2)C1)Nc1cn[nH]c(=O)c1C(F)(F)F` [I-A-15, (S)-1-(2-((6-oxo-5-(trifluoromethyl)-1,6-dihydropyridazin-4-yl)amino)propyl)-N-(1-(5-(trifluoromethyl)pyrimidin-2-yl)azetidin-3-yl)azetidine-3-carboxamide] the IC50 [1] was less than 100 nM.

Compound `CC(CC1CN(C(=O)C2CCN(c3ncc(C(F)(F)F)cn3)CC2)C1)Nc1cn[nH]c(=O)c1C(F)(F)F` [I-D-1, 4-(trifluoromethyl)-5-((1-(1-(1-(5-(trifluoromethyl)pyrimidin-2-yl)piperidine-4-carbonyl)azetidin-3-yl)propan-2-yl)amino)pyridazin-3(2H)-one] has an IC50 [1] of less than 100 nM and an IC50 [2] of less than 100 nM.

For `C[C@@H](CN1CC(C(=O)N2CCN(c3ncc(C#N)cn3)CC2)C1)Nc1cn[nH]c(=O)c1C(F)(F)F` [I-A-3, (S)-2-(4-(1-(2-((6-oxo-5-(trifluoromethyl)-1,6-dihydropyridazin-4-yl)amino)propyl)azetidine-3-carbonyl)piperazin-1-yl)pyrimidine-5-carbonitrile], the IC50 [1] was less than 100 nM.

For `COc1cnc(N2CCN(C(=O)C3CN(C[C@H](C)Nc4cn[nH]c(=O)c4C(F)(F)F)C3)CC2)nc1` [I-A-9, (S)-5-((1-(3-(4-(5-methoxypyrimidin-2-yl)piperazine-1-carbonyl)azetidin-1-yl)propan-2-yl)amino)-4-(trifluoromethyl)pyridazin-3(2H)-one], the IC50 [1] was less than 100 nM.

`O=C(NC/C=C/CNc1cn[nH]c(=O)c1C(F)(F)F)N1CCN(c2ncc(C(F)(F)F)cn2)CC1` [I-E-2, (E)-N-(4-((6-oxo-5-(trifluoromethyl)-1,6-dihydropyridazin-4-yl)amino)but-2-en-1-yl)-4-(5-(trifluoromethyl)pyrimidin-2-yl)piperazine-1-carboxamide] gave an IC50 [1] of less than 100 nM and an IC50 [2] of less than 100 nM.

Compound `C[C@@H](CN1CC(C(=O)N2CCN(c3ncc(-c4ccc(C(F)(F)F)cc4)cn3)CC2)C1)Nc1cn[nH]c(=O)c1C(F)(F)F` [I-A-2, (S)-4-(trifluoromethyl)-5-((1-(3-(4-(5-(4-(trifluoromethyl)phenyl)pyrimidin-2-yl)piperazine-1-carbonyl)azetidin-1-yl)propan-2-yl)amino)pyridazin-3(2H)-one] has an IC50 [1] of 100 to 500 nM.

`C[C@@H](CN1CC(C(=O)N2CCN(c3ncc(F)cn3)CC2)C1)Nc1cn[nH]c(=O)c1C(F)(F)F` [I-A-8, (S)-5-((1-(3-(4-(5-fluoropyrimidin-2-yl)piperazine-1-carbonyl)azetidin-1-yl)propan-2-yl)amino)-4-(trifluoromethyl)pyridazin-3(2H)-one] was tested, and the IC50 [1] was 100 to 500 nM.

`C[C@@H](CN1CC[C@H](C(=O)N2CCN(c3ncc(C(F)(F)F)cn3)CC2)C1)Nc1cn[nH]c(=O)c1C(F)(F)F` [I-A-18, 4-(trifluoromethyl)-5-(((2S)-1-(3-(4-(5-(trifluoromethyl)pyrimidin-2-yl)piperazine-1-carbonyl)pyrrolidin-1-yl)propan-2-yl)amino)pyridazin-3(2H)-one] showed an IC50 [1] of 100 to 500 nM.

`C[C@@H](CN1CC(C(=O)N2CCN(c3ccc(C(F)(F)F)cn3)CC2)C1)Nc1cn[nH]c(=O)c1C(F)(F)F` [I-A-10, (S)-4-(trifluoromethyl)-5-((1-(3-(4-(5-(trifluoromethyl)pyridin-2-yl)piperazine-1-carbonyl)azetidin-1-yl)propan-2-yl)amino)pyridazin-3(2H)-one] was tested, and the IC50 [1] was less than 100 nM.

In the case of `C[C@@H](CN1CC(C(=O)N2CCN(c3ncc(Br)cn3)CC2)C1)Nc1cn[nH]c(=O)c1C(F)(F)F` [I-A-7, (S)-5-((1-(3-(4-(5-bromopyrimidin-2-yl)piperazine-1-carbonyl)azetidin-1-yl)propan-2-yl)amino)-4-(trifluoromethyl)pyridazin-3(2H)-one], the IC50 [1] is reported as less than 100 nM.

Work on `C[C@@H](CN1CCC(C(=O)N2CCN(c3ncc(C(F)(F)F)cn3)CC2)CC1)Nc1cn[nH]c(=O)c1C(F)(F)F` [I-A-19, (S)-4-(trifluoromethyl)-5-((1-(4-(4-(5-(trifluoromethyl)pyrimidin-2-yl)piperazine-1-carbonyl)piperidin-1-yl)propan-2-yl)amino)pyridazin-3(2H)-one] yielded an IC50 [1] of 100 to 500 nM.

`C[C@@H](CN1CC(C(=O)N2CCN(c3ccc4c(c3)OC(F)(F)O4)CC2)C1)Nc1cn[nH]c(=O)c1C(F)(F)F` [I-B-1, (S)-5-((1-(3-(4-(2,2-difluorobenzo[d][1,3]dioxol-5-yl)piperazine-1-carbonyl)azetidin-1-yl)propan-2-yl)amino)-4-(trifluoromethyl)pyridazin-3(2H)-one] was tested, and the IC50 [1] was less than 100 nM and the IC50 [2] was less than 100 nM.

`O=C(C1CN(CC2(Nc3cn[nH]c(=O)c3C(F)(F)F)CC2)C1)N1CCN(c2ncc(C(F)(F)F)cn2)CC1` [I-A-24, 4-(trifluoromethyl)-5-((1-((3-(4-(5-(trifluoromethyl)pyrimidin-2-yl)piperazine-1-carbonyl)azetidin-1-yl)methyl)cyclopropyl)amino)pyridazin-3(2H)-one] was tested, and the IC50 [1] was 100 to 500 nM.

Work on `CC1CN(c2ncc(C(F)(F)F)cn2)CC(C)N1C(=O)C1CN(C[C@H](C)Nc2cn[nH]c(=O)c2C(F)(F)F)C1` (stereo partly drawn) [I-A-17, 5-(((2S)-1-(3-(2,6-dimethyl-4-(5-(trifluoromethyl)pyrimidin-2-yl)piperazine-1-carbonyl)azetidin-1-yl)propan-2-yl)amino)-4-(trifluoromethyl)pyridazin-3(2H)-one] yielded an IC50 [1] of less than 100 nM.

`C[C@@H](CN1CC(C(=O)N2CCN(c3ncccn3)CC2)C1)Nc1cn[nH]c(=O)c1C(F)(F)F` [I-A-14, (S)-5-((1-(3-(4-(pyrimidin-2-yl)piperazine-1-carbonyl)azetidin-1-yl)propan-2-yl)amino)-4-(trifluoromethyl)pyridazin-3(2H)-one] showed an IC50 [1] of 100 to 500 nM.

— patent publication US20250346579A1, “PYRIDAZINONE COMPOUND AND PREPARATION METHOD THEREFOR, PHARMACEUTICAL COMPOSITION THEREOF, AND APPLICATION THEREOF” (CHINA PHARMACEUTICAL UNIVERSITY, priority 2021, published 2025)
